Structures can show the parent of a compound that is named as a salt.
System: invasive breast carcinoma lumpectomy/mastectomy specimens and lymph nodes
Assay: 5-ALA breast study: PpIX fluorescence imaging of breast tumor specimens and lymph nodes with handheld device (405 nm excitation)
Format: in vivo, human
Settings: multispectral or multiband fluorescence imaging with 5-ALA
Method: In one example, oral 5-ALA was dissolved in water and administered by a study nurse between 2-4 h before surgery in patients at dosages of 15 or 30 mg/kg 5-ALA.
By viewing lymph nodes prior to removal from the subject's body, it is possible to observe, using the device 100, red fluorescence emissions from cells containing induced porphyrins that are within the lymph node.
When combined with 5-ALA red FL, the differing emission spectra of normal tissue AF and PpIX are easily distinguishable visually (see FIGS. 15 and 16). […] The 405 nm excitation LEDs and the dual band emission filter (500-545 nm and 600-660 nm) are suitable for breast tumor imaging using 5-ALA because they provide a composite image comprised of red PpIX and green connective tissue FL, and broad green-to-red FL of adipose tissue (appears pink).

`NCC(=O)CCC(=O)O` [5-ALA, Aminolevulinic acid hydrochloride] was tested, and the “depth below the imaged tissue surface at which otherwise clinically occult disease is detected” value was no more than 2.6 mm.
